Values quoted from earlier work, collected in patent US11672748B2, “Aqueous hair conditioner compositions containing solubilized anti-dandruff actives” (The Procter & Gamble Company, priority 2020, dated 2023).

Conditions: in water

C=CC(C)CCCC(C)(C)O (centres unmarked) [Dihydro Myrcenol]
Solubility in H2O (g/L): Negligible (lower than 0.1) g/L

CCCCCCCCCCCC(=O)N(C)CC(=O)OC(C)C [Isoropyl N-Lauroyl Sarcosinate]
Solubility in H2O (g/L): (lower than 0.1) g/L
